Read-outs that look alike come from different tables or passages of the source.
Tests used:
Experiment in all cases: SelectScreen Kinase Profiling, single point inhibition and IC50 for off-target kinases
Assay type in all cases: biochemical
off-target kinases [1] = target: off-target kinases (Homo sapiens, UniProt Q02779); details: MAP3K10 (MLK2), LanthaScreen Binding
off-target kinases [2] = target: T1, off-target kinases (Homo sapiens, UniProt O15264); details: MAPK13 (p38 delta), ZLYTE, ATP Km app
T1 sequence (O15264 1-365): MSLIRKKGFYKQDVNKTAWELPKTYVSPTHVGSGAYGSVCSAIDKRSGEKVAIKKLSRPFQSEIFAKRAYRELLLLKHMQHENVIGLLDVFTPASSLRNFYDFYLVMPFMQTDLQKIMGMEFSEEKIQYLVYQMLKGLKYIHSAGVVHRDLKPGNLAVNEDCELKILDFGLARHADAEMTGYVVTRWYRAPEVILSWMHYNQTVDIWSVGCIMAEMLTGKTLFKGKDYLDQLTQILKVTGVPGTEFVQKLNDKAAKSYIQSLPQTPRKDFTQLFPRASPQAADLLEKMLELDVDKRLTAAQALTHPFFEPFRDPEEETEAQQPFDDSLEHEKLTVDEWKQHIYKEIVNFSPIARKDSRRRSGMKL

off-target kinases [3] = target: T2, off-target kinases (Homo sapiens, UniProt P54760); details: EPHB4, ZLYTE, ATP Km app
T2 sequence (P54760 16-987): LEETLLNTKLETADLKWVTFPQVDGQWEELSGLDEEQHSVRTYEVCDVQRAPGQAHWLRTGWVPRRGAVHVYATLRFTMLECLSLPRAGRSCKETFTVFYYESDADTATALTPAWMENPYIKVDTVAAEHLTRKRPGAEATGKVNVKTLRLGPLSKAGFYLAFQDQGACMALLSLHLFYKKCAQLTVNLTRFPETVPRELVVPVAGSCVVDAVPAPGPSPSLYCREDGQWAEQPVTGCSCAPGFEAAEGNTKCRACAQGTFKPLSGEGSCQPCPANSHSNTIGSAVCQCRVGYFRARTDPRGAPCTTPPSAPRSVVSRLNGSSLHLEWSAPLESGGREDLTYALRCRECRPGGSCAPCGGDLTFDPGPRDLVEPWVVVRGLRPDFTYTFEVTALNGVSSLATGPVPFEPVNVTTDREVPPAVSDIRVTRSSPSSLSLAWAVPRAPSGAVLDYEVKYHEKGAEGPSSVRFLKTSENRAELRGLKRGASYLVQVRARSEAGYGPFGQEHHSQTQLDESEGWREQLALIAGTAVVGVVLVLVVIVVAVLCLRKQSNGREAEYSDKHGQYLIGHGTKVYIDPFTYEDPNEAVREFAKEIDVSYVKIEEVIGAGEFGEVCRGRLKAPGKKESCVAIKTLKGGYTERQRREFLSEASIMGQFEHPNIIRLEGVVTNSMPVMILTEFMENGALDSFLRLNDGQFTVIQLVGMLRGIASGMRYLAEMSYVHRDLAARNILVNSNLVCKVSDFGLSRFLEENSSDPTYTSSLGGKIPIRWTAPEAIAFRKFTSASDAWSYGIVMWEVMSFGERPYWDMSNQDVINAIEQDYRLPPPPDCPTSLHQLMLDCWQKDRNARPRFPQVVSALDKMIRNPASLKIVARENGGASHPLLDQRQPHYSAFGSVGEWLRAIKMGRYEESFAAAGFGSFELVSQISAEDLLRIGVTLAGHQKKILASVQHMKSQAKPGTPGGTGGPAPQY

off-target kinases [4] = target: off-target kinases (Homo sapiens, UniProt Q16513); details: PKN2 (PRK2), LanthaScreen Binding
Sequence of off-target kinases (Homo sapiens, UniProt Q16513) (Q16513 whole entry): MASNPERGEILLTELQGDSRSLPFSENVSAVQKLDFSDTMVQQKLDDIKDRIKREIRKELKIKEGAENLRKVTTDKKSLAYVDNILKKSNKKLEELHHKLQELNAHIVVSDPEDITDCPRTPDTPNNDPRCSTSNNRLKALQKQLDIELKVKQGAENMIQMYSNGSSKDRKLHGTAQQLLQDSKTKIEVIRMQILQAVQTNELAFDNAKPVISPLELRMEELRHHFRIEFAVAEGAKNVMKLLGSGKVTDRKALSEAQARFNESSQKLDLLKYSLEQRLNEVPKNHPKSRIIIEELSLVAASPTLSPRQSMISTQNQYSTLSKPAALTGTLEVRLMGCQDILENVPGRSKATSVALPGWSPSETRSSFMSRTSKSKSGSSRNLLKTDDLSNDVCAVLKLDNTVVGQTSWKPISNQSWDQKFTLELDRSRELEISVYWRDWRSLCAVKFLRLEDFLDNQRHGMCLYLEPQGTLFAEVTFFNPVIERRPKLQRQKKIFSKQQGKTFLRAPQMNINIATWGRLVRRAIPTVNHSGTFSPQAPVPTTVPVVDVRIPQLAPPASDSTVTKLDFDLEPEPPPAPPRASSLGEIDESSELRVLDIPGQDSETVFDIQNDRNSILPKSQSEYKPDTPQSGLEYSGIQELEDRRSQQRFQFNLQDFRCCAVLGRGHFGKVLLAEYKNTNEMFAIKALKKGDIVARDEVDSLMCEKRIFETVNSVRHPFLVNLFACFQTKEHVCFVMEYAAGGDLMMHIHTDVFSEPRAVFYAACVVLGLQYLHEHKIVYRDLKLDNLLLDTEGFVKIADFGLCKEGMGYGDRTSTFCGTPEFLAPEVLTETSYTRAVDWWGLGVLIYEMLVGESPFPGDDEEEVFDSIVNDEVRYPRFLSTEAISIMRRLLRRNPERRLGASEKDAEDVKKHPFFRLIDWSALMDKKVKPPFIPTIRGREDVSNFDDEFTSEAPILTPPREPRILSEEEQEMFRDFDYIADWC

off-target kinases [5] = target: off-target kinases (Homo sapiens, UniProt P35916); details: FLT4 (VEGFR3), ATP Km app, ZLYTE
Sequence of off-target kinases (Homo sapiens, UniProt P35916) (P35916 25-1363): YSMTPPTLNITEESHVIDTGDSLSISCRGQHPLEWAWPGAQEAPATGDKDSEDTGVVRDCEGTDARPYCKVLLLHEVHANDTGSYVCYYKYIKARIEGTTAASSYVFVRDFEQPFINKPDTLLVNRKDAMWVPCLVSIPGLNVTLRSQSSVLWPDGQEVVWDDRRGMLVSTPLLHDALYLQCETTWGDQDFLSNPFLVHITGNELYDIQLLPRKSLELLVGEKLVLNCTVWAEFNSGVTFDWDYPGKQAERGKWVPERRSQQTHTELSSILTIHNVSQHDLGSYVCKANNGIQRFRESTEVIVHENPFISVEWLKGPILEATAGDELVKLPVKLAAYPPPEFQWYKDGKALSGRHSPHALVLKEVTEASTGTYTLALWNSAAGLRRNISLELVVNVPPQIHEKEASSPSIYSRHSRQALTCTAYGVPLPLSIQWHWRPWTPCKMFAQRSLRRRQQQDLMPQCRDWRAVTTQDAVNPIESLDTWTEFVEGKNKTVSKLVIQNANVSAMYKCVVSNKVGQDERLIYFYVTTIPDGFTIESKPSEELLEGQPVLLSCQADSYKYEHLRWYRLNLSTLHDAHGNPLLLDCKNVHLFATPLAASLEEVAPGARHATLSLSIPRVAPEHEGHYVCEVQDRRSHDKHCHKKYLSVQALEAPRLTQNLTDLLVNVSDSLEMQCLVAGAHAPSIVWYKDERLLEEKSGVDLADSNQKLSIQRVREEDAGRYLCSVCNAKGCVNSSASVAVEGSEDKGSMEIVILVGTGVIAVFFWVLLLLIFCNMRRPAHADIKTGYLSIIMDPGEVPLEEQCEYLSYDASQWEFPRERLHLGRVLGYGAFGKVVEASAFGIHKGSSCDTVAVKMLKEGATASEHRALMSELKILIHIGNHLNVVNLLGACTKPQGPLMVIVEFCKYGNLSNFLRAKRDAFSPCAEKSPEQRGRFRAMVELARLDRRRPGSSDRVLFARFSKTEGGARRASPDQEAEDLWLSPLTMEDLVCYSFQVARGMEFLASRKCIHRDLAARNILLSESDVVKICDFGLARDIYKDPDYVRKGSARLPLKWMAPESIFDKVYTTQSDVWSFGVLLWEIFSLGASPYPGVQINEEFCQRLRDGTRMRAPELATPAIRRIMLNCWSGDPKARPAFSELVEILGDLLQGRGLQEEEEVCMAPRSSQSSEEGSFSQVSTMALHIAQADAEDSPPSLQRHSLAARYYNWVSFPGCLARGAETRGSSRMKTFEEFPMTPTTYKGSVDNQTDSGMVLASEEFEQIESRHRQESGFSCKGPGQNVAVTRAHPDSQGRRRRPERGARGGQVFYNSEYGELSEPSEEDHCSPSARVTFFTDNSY

off-target kinases [6] = target: off-target kinases (Homo sapiens, UniProt P48729); details: CSNK1A1 (CK1 alpha 1), ZLYTE, ATP Km app
Sequence of off-target kinases (Homo sapiens, UniProt P48729) (P48729 whole entry): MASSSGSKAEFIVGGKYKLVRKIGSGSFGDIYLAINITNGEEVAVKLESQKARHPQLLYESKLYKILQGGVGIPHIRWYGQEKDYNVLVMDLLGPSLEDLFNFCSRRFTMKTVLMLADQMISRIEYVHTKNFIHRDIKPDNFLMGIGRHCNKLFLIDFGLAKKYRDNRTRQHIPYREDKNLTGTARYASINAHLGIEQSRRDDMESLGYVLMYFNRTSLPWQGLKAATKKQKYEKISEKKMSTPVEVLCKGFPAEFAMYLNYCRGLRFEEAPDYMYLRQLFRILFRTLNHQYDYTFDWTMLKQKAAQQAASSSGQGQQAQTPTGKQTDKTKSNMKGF

Sequence of off-target kinases (Homo sapiens, UniProt Q02779) (Q02779 whole entry): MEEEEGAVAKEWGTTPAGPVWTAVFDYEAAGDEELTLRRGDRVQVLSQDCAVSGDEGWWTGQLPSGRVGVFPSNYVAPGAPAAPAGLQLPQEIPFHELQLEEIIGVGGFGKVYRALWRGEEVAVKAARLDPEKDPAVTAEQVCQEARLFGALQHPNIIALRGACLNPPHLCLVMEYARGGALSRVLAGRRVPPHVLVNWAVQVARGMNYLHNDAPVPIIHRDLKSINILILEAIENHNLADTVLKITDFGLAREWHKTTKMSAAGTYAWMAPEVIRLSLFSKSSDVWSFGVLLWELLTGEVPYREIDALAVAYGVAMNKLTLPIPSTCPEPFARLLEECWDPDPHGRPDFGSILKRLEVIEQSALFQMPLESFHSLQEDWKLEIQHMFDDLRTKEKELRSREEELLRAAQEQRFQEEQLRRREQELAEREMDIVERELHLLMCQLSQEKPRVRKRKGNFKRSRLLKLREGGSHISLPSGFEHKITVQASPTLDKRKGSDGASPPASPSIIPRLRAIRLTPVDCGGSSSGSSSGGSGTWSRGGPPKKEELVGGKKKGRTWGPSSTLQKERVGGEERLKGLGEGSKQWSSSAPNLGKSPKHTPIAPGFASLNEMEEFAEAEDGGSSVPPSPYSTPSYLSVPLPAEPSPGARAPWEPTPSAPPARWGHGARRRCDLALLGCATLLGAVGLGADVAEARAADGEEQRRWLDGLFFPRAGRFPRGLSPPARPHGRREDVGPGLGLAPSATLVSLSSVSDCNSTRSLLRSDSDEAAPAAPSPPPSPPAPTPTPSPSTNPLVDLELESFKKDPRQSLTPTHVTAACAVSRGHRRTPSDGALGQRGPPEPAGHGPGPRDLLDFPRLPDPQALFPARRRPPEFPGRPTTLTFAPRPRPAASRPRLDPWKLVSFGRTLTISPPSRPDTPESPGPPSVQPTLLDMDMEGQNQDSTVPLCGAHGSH

Q: With `N#Cc1cc(-c2ncnc(Nc3ccc(N4CCN(C5COC5)CC4)cc3)n2)ccc1OC1CCOCC1` [Compound 1, 5-(4-((4-(4-(oxetan-3-yl)piperazin-1-yl)phenyl)amino)-1,3,5-triazin-2-yl)-2-((tetrahydro-2H-pyran-4-yl)oxy)benzonitrile] as the molecule, how does the inhibition (off-target kinases [1]; read-out: % Inhibition 1) read?
A: 58%

Q: What about the inhibition (off-target kinases [1]; read-out: % Inhibition 2) of the same molecule?
A: 60%

Q: What about the inhibition (off-target kinases [1]; read-out: % Inhibition Avg) of the same molecule?
A: 59%

Q: What about the inhibition (off-target kinases [2]; read-out: % Inhibition 1) of the same molecule?
A: 7%

Q: And the inhibition (off-target kinases [2]; read-out: % Inhibition 2)?
A: 9%

Q: What about the inhibition (off-target kinases [2]; read-out: % Inhibition Avg) of the same molecule?
A: 8%

Q: And the inhibition (off-target kinases [3]; read-out: % Inhibition 1)?
A: 15%

Q: And the inhibition (off-target kinases [3]; read-out: % Inhibition 2)?
A: 14%

Q: What about the inhibition (off-target kinases [3]; read-out: % Inhibition Avg) of the same molecule?
A: 15%

Q: And the inhibition (off-target kinases [4]; read-out: % Inhibition 1)?
A: 51%

Q: And the inhibition (off-target kinases [4]; read-out: % Inhibition 2)?
A: 52%

Q: And the inhibition (off-target kinases [4]; read-out: % Inhibition Avg)?
A: 51%

Q: And the inhibition (off-target kinases [5]; read-out: % Inhibition 1)?
A: 64%

Q: And the inhibition (off-target kinases [5]; read-out: % Inhibition 2)?
A: 60%

Q: And the inhibition (off-target kinases [5]; read-out: % Inhibition Avg)?
A: 62%

Q: And the inhibition (off-target kinases [6]; read-out: % Inhibition 1)?
A: 2%

Q: What about the inhibition (off-target kinases [6]; read-out: % Inhibition 2) of the same molecule?
A: 1%

Q: What about the inhibition (off-target kinases [6]; read-out: % Inhibition Avg) of the same molecule?
A: 1%

— patent US11572590B2, “Methods for evaluating tumor cell spheroids using 3D microfluidic cell culture device” (Dana-Farber Cancer Institute, Inc., priority 2017, dated 2023)
